Test results reported in ChEMBL document CHEMBL1681705, “Optimisation of ITK inhibitors through successive iterative design cycles” (Bioorg Med Chem Lett, 2011).

Columns and labels:
[1] = target: Serine/threonine-protein kinase PLK2 (Homo sapiens) (UniProt Q9NYY3); assay: Inhibition of Snk at 1 uM
[2] = target: Tyrosine-protein kinase SYK (Homo sapiens) (UniProt P43405); assay: Inhibition of Syk at 1 uM
[3] = target: T1, Serine/threonine-protein kinase Chk1 (Homo sapiens) (UniProt O14757); assay: Inhibition of CHK1 at 1 uM; values are per cent of control
T1 sequence (whole entry): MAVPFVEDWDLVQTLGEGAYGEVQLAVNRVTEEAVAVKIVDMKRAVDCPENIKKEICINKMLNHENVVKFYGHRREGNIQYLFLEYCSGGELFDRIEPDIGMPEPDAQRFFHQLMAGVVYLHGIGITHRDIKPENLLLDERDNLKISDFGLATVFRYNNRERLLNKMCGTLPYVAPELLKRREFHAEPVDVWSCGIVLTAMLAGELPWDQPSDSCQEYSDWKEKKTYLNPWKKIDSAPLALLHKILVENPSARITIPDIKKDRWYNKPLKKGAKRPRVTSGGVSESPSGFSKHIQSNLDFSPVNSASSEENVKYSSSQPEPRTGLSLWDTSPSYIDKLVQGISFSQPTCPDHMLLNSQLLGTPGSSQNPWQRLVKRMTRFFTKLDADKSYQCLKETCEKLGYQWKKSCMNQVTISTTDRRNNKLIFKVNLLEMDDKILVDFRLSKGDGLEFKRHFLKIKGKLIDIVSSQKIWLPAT

[4] = target: T2, Serine/threonine-protein kinase STK11 (Homo sapiens) (UniProt Q15831); assay: Inhibition of LKB1 at 1 uM; values are per cent of control
T2 sequence (whole entry): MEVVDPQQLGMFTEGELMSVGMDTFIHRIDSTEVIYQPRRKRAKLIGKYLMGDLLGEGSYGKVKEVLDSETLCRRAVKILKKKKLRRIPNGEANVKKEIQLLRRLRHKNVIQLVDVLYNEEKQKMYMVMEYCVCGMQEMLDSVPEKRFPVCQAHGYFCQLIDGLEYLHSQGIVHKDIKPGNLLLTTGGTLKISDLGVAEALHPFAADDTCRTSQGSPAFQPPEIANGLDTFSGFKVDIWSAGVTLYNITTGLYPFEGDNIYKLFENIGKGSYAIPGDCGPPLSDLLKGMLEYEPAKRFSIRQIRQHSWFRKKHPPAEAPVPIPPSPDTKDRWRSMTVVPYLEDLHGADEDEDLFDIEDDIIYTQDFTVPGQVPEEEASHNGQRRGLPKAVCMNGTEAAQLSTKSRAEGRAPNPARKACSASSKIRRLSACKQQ

[5] = target: T3, Serine/threonine-protein kinase D2 (Homo sapiens) (UniProt Q9BZL6); assay: Inhibition of PKD2 at 1 uM; values are per cent of control
T3 sequence (whole entry): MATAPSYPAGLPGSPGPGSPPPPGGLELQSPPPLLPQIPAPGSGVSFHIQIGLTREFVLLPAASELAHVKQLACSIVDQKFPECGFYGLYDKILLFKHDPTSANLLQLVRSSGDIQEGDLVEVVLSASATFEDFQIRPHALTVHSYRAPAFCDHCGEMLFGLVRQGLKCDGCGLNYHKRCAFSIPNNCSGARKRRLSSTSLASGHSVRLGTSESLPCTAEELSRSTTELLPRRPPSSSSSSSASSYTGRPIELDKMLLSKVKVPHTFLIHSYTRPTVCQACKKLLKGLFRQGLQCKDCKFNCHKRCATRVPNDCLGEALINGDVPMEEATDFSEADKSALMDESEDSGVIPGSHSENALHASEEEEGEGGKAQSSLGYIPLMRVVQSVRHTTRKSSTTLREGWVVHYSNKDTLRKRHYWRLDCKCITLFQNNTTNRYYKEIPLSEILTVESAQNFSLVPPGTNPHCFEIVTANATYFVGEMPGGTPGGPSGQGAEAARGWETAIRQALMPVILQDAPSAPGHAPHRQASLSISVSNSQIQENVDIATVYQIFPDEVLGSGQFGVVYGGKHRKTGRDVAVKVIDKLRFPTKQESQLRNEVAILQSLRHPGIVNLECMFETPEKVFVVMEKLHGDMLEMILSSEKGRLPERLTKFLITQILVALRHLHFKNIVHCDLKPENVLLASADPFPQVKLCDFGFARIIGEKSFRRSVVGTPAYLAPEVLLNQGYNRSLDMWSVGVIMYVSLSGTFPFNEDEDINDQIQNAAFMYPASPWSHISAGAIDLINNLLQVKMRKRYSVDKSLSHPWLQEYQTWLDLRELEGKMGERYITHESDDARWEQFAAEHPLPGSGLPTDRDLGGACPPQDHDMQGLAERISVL

[6] = target: Serine/threonine-protein kinase PLK3 (Homo sapiens) (UniProt Q9H4B4); assay: Inhibition of Plk3 at 1 uM; values are per cent of control
Sequence of Serine/threonine-protein kinase PLK3 (Homo sapiens) (Q9H4B4 whole entry, looked up): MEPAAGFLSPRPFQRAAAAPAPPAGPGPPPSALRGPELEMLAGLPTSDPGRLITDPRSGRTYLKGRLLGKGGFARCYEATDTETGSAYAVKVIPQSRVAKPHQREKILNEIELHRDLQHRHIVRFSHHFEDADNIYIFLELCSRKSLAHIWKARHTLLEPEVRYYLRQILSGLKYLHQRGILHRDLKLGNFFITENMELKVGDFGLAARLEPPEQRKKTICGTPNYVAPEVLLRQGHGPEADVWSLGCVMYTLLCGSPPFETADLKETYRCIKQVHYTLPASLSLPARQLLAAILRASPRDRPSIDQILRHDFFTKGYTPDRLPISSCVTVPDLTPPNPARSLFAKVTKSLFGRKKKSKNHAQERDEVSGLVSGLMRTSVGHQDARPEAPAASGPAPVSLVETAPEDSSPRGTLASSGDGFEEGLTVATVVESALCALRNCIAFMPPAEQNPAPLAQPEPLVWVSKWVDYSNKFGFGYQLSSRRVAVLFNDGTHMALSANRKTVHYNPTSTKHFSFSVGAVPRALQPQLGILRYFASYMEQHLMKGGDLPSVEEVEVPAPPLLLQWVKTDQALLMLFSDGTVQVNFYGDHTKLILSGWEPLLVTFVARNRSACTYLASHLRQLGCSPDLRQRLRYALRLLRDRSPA

[7] = target: Tyrosine-protein kinase Lck (Homo sapiens) (UniProt P06239); assay: Inhibition of Lck at 0.1 uM; values are per cent of control
Sequence of Tyrosine-protein kinase Lck (Homo sapiens) (P06239 2-509 limits assumed): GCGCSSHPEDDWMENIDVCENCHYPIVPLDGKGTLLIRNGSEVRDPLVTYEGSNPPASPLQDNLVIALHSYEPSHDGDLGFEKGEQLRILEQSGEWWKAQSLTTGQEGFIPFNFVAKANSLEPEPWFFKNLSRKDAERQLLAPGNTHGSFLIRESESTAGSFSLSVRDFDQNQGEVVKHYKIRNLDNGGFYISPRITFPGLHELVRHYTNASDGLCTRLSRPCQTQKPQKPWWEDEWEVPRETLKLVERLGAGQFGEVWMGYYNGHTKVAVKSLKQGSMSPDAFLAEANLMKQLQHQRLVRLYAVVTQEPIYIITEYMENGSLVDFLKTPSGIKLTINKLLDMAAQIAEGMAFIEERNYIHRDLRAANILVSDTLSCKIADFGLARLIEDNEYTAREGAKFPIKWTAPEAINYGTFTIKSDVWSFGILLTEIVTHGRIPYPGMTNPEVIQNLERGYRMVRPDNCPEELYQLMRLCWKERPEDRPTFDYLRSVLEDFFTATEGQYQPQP

[8] = target: Protein-tyrosine kinase 2-beta (Homo sapiens) (UniProt Q14289); assay: Inhibition of Pyk2 at 0.1 uM; values are per cent of control
Sequence of Protein-tyrosine kinase 2-beta (Homo sapiens) (Q14289 whole entry, looked up): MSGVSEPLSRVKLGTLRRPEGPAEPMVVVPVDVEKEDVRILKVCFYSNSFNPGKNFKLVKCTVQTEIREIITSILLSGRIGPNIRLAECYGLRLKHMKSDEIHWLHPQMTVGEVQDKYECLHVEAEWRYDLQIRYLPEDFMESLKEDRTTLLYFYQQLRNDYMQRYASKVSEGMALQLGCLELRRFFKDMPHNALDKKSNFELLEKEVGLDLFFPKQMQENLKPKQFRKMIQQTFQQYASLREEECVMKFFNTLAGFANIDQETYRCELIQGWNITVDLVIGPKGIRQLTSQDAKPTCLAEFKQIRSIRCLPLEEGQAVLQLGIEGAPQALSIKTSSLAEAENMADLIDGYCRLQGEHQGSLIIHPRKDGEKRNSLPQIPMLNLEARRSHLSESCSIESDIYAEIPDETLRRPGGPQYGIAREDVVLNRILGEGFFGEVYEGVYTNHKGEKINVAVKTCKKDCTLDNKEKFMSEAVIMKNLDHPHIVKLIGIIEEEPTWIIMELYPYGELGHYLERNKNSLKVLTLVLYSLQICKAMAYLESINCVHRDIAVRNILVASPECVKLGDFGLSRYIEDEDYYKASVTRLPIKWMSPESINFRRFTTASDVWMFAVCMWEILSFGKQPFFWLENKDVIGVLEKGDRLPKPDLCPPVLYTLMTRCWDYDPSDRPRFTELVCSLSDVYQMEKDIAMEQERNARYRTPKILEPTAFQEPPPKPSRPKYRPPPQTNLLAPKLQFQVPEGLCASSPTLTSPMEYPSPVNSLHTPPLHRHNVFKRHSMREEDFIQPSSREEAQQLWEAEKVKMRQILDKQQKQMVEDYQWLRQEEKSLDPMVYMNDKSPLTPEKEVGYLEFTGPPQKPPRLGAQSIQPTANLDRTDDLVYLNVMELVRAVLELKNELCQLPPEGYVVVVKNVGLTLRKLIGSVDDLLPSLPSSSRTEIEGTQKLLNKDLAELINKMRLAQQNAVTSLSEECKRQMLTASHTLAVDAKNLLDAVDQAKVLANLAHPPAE

[9] = target: Ephrin type-A receptor 4 (Homo sapiens) (UniProt P54764); assay: Inhibition of EphA4 at 0.1 uM; values are per cent of control
Sequence of Ephrin type-A receptor 4 (Homo sapiens) (P54764 whole entry): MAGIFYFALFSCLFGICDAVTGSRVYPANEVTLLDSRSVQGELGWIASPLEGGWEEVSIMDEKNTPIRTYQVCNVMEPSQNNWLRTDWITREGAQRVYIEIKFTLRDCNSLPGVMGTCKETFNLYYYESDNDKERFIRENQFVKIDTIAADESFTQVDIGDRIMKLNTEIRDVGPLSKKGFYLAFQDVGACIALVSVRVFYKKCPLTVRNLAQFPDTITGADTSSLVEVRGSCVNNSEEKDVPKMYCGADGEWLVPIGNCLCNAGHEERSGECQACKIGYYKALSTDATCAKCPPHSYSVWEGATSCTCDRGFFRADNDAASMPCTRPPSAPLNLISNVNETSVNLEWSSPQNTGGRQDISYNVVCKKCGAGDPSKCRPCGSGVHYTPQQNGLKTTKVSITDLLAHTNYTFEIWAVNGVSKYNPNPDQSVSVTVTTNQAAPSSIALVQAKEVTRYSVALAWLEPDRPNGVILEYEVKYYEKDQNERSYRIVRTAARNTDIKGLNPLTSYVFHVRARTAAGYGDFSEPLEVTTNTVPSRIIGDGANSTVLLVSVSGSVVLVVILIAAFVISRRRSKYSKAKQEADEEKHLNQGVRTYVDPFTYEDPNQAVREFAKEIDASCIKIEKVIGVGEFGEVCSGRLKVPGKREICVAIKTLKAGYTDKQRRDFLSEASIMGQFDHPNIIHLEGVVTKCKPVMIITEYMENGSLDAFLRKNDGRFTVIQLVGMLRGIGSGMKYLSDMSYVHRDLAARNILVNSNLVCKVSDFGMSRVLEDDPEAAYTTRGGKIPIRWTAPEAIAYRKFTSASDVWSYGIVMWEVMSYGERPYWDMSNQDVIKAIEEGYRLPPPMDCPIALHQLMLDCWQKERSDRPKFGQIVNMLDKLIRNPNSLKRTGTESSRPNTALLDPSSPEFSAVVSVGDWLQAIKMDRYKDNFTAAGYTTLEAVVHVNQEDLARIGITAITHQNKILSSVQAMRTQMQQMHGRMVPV

[10] = target: Serine/threonine-protein kinase 33 (Homo sapiens) (UniProt Q9BYT3); assay: Inhibition of STK33 at 0.1 uM; values are per cent of control
Sequence of Serine/threonine-protein kinase 33 (Homo sapiens) (Q9BYT3 whole entry, looked up): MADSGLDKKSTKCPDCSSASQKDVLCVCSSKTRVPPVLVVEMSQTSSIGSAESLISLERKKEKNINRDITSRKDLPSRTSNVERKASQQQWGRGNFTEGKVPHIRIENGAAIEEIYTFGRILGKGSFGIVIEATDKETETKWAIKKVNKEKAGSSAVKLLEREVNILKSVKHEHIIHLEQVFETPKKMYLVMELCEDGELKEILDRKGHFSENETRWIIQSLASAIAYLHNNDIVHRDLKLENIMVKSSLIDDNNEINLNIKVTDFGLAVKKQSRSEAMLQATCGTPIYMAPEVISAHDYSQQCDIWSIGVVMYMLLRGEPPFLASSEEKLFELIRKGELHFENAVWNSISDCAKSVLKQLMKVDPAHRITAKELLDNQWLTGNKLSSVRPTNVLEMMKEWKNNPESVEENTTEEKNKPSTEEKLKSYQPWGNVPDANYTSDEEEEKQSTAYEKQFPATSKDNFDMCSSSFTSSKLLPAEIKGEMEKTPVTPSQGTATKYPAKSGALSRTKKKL

[11] = target: Mitogen-activated protein kinase 11 (Homo sapiens) (UniProt Q15759); assay: Inhibition of SAPK2b at 0.1 uM; values are per cent of control
Sequence of Mitogen-activated protein kinase 11 (Homo sapiens) (Q15759 whole entry): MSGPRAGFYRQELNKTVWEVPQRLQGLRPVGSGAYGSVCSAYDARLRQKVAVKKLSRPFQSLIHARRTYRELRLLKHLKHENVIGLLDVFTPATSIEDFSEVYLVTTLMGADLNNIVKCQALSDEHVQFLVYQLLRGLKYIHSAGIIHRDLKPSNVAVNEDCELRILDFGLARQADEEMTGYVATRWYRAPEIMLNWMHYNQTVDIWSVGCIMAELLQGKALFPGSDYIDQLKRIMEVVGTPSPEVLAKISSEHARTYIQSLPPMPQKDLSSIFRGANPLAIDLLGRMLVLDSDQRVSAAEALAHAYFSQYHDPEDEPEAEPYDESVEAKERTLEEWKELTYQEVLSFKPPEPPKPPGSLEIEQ

[12] = target: CDK6/cyclin D3 (Homo sapiens) (UniProt P30281+Q00534); assay: Inhibition of CDK6/cyclin D3 at 1 uM; values are per cent of control
[13] = target: Cyclin-dependent kinase 7/ cyclin H (Homo sapiens) (UniProt P51946+P50613); assay: Inhibition of CDK7/cyclin H/MAT1 at 1 uM; values are per cent of control

Sequence of Serine/threonine-protein kinase PLK2 (Homo sapiens) (Q9NYY3 whole entry, looked up): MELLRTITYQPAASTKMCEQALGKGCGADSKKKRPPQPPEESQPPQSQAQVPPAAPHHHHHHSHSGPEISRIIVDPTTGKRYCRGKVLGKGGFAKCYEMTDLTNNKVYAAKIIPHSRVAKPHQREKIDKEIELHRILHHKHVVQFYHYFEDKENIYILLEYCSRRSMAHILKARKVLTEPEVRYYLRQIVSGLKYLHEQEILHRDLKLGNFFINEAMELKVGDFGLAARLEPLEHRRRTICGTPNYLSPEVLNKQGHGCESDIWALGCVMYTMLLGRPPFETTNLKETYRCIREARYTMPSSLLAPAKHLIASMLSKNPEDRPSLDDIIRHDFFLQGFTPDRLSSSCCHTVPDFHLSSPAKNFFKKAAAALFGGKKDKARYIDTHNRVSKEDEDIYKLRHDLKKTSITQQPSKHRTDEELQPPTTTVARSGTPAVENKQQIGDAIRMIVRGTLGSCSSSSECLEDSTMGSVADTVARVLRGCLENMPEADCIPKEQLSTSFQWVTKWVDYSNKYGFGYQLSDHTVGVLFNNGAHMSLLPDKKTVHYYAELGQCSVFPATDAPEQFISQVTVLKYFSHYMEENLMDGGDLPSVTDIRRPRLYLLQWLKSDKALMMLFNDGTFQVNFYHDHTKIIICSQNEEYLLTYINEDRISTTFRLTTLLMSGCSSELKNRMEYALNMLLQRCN

| inhibition [1] | inhibition [2] | residual activity [3] | residual activity [4] | residual activity [5] | residual activity [6] | residual activity [7] | residual activity [8] | residual activity [9] | residual activity [10] | residual activity [11] | residual activity [12] | residual activity [13] | SMILES |
| --- | --- | --- | --- | --- | --- | --- | --- | --- | --- | --- | --- | --- | --- |
| 87% | -2% | 40% | 101% | 80% | 117% | 61% | 66% | 99% | 13% | 100% | 46% | 28% | Cc1ccc2cc(-c3n[nH]c4ccc(NC5CCN(Cc6ccccc6)CC5)cc34)[nH]c2c1 |
| 76% | 0% | 6% | 98% | 12% | 100% | 27% | 71% | 98% | 76% | 100% | 33% | 10% | Cc1ccc2cc(-c3n[nH]c4ccc(NC5CCNC5)cc34)[nH]c2c1 (stereo unspecified) |
